Test results published in patent US20150018340A1, “PIPECOLATE-DIKETOAMIDES FOR TREATMENT OF PSYCHIATRIC DISORDERS” (MAX-PLANCK-GESELLSCHAFT ZUR FÖRDERUNG DER WISSENSCHAFTEN …, priority 2011, published 2015).
Where two headings read alike, the source gives them in different places.

Key:
FKBP51 (FK1 domain) = molecular target: T1, FKBP51 (FK1 domain) (Homo sapiens, UniProt Q13451); assay: Fluorescence polarization assay, binding affinity to FKBP51 (FK1 domain); conditions: fluorescence polarization assay using tracer 2b, read-out: FKBP51FK1 IC50
T1 sequence (Q13451 42-130 limits assumed): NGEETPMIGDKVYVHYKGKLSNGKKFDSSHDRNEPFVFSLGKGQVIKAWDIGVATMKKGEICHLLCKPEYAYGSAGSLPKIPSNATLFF
Method: (§1) The binding affinites for FKBPs were determined as described in Kozany et al., ChemBioChem 10, 8, 2009, 1402-1410 using tracer 2b.
(§2) Table 1: Chemical compounds according to formula (I) used in fluorescence polarization assay: Binding affinity to FKBP51 (FK1 domain) and FKBP52 (FK1 domain)

FKBP52 (FK1 domain) = molecular target: T2, FKBP52 (FK1 domain) (Homo sapiens, UniProt Q02790); assay: Fluorescence polarization assay, binding affinity to FKBP52 (FK1 domain); conditions: fluorescence polarization assay using tracer 2b, read-out: FKBP52FK1 IC50
T2 sequence (Q02790 50-138 limits assumed): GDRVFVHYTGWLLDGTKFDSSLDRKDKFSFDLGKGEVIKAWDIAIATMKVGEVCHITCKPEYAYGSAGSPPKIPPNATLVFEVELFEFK
Method: as §1, §2

SMILES | IC50 (FKBP51 (FK1 domain)) [µM] | IC50 (FKBP52 (FK1 domain)) [µM] | IC50 (FKBP51 (FK1 domain); listed as 1*) [µM] | IC50 (FKBP52 (FK1 domain); listed as 1*) [µM] | IC50 (FKBP52 (FK1 domain); listed as 3*) [µM]
COc1ccc(CC[C@@H](OC(=O)[C@@H]2CCCCN2C(=O)C(=O)C2(O)CCCCC2C)c2cccc(OCC(=O)O)c2)cc1OC (stereo in doubt) [Compound 6, 2-(3-((R)-3-(3,4-dimethoxyphenyl)-1-((S)-1-(2-((1R,2R)-1-hydroxy-2-methylcyclohexyl)-2-oxoacetyl)piperidine-2-carbonyloxy)propyl)phenoxy) acetic acid] | 4.13 ± 0.2 | 2.64 ± 0.19 | – | – | –
CCC1CCCCC1(O)C(=O)C(=O)N1CCCC[C@H]1C(=O)O[C@H](CCc1ccc(OC)c(OC)c1)c1cccc(OCC(=O)O)c1 (stereo in doubt) [Compound 7, 2-(3-((R)-3-(3,4-dimethoxyphenyl)-1-((S)-1-(2-((1R,2R)-2-ethyl-1-hydroxycyclohexyl)-2-oxoacetyl)piperidine-2-carbonyloxy)propyl)phenoxy) acetic acid] | – | 9.77 ± 1.48 | – | – | –
COc1ccc(CC[C@@H](OC(=O)[C@@H]2CCCCN2C(=O)C(=O)[C@]2(O)CCCC[C@H]2C)c2cccc(OCC(=O)O)c2)cc1OC [Compound 1, 2-(3-((R)-3-(3,4-dimethoxyphenyl)-1-((S)-1-(2-((1S,2R)-1-hydroxy-2-methylcyclohexyl)-2-oxoacetyl)piperidine-2-carbonyloxy)propyl)phenoxy) acetic acid] | – | – | 4.2 ± 0.11 | 2.13 ± 0.21 | –
COc1ccc(CC[C@@H](OC(=O)[C@@H]2CCCCN2C(=O)C(=O)[C@]2(O)CCCC[C@H]2C)c2cccc(OCC(=O)O)c2)cc1OC [Compound 1a] | 4.27 ± 0.19 | 2.44 ± 0.17 | – | – | –
COc1ccc(CC[C@@H](OC(=O)[C@@H]2CCCCN2C(=O)C(=O)[C@@]2(O)CCCC[C@@H]2C)c2cccc(OCC(=O)O)c2)cc1OC [Compound 1b] | 4.54 ± 0.24 | 2.88 ± 0.21 | – | – | –
COc1ccc(CC[C@@H](OC(=O)[C@@H]2CCCCN2C(=O)C(=O)[C@]2(O)CCCC[C@H]2C)c2cccc(OCCN3CCOCC3)c2)cc1OC [Compound 2, (S)—((R)-3-(3,4-dimethoxyphenyl)-1-(3-(2-morpholinoethoxy)phenyl)propyl) 1-(2-((1S,2R)-1-hydroxy-2-methylcyclohexyl)-2-oxoacetyl)piperidine-2-carboxylate] | 2.02 ± 0.14 | 0.89 ± 0.06 | – | – | –
CC[C@@H]1CCCC[C@@]1(O)C(=O)C(=O)N1CCCC[C@H]1C(=O)O[C@H](CCc1ccc(OC)c(OC)c1)c1cccc(OCC(=O)O)c1 [Compound 3, 2-(3-((R)-3-(3,4-dimethoxyphenyl)-1-((S)-1-(2-((1S,2R)-2-ethyl-1-hydroxy-cyclohexyl)-2-oxoacetyl)piperidine-2-carbonyloxy)propyl)phenoxy) acetic acid] | – | – | – | – | 9.5 ± 1.3
CC[C@@H]1CCCC[C@@]1(O)C(=O)C(=O)N1CCCC[C@H]1C(=O)O[C@H](CCc1ccc(OC)c(OC)c1)c1cccc(OCC(=O)O)c1 [Compound 3a] | – | 4.2 ± 0.3 | – | – | –
CC[C@H]1CCCC[C@]1(O)C(=O)C(=O)N1CCCC[C@H]1C(=O)O[C@H](CCc1ccc(OC)c(OC)c1)c1cccc(OCC(=O)O)c1 [Compound 3b] | – | 3.5 ± 0.6 | – | – | –
CC[C@@H]1CCCC[C@@]1(O)C(=O)C(=O)N1CCCC[C@H]1C(=O)O[C@H](CCc1ccc(OC)c(OC)c1)c1cccc(OCCN2CCOCC2)c1 [Compound 4, (S)—((R)-3-(3,4-dimethoxyphenyl)-1-(3-(2-morpholinoethoxy)phenyl)propyl)1-(2-((1S,2R)-2-ethyl-1-hydroxycyclohexyl)-2-oxoacetyl)piperidine-2-carboxylate] | 9.66 ± 0.83 | 3.72 ± 1.02 | – | – | –
COc1ccc(CC[C@@H](OC(=O)[C@@H]2CCCCN2C(=O)C(=O)[C@]2(O)CCCC[C@H]2CO)c2cccc(OCC(=O)O)c2)cc1OC [Compound 5, 2-(3-((R)-3-(3,4-dimethoxyphenyl)-1-((S)-1-(2-((1S,2S)-1-hydroxy-2-(hydroxylmethyl)cyclohexyl)-2-oxoacetyl)piperidine-2-carbonyloxy)propyl)phenoxy)acetic acid] | 8.5 ± 0.6 | 6.2 ± 0.5 | – | – | –
COc1ccc(CC[C@@H](OC(=O)[C@@H]2CCCCN2C(=O)C(=O)[C@]2(O)CCCC[C@@H]2C)c2cccc(OCC(=O)O)c2)cc1OC [Compound 6a] | 4.18 ± 0.15 | 2.2 ± 0.13 | – | – | –
COc1ccc(CC[C@@H](OC(=O)[C@@H]2CCCCN2C(=O)C(=O)[C@@]2(O)CCCC[C@H]2C)c2cccc(OCC(=O)O)c2)cc1OC [Compound 6b] | 4.96 ± 0.25 | 2.64 ± 0.25 | – | – | –
COc1ccc(CC[C@@H](OC(=O)[C@@H]2CCCCN2C(=O)C(=O)C2CCCCC2)c2cccc(OCC(=O)O)c2)cc1OC [Compound 8] | 15.2 ± 1.04 | 9.53 ± 1.35 | – | – | –
COc1ccc(CC[C@@H](OC(=O)[C@@H]2CCCCN2C(=O)C(=O)c2cc(OC)c(OC)c(OC)c2)c2cccc(OCC(=O)O)c2)cc1OC [Compound 9, 2-(3-((R)-3-(3,4-dimethoxyphenyl)-1-((S)-1-(2-oxo-2-(3,4,5-tri-methoxyphenyl)acetyl)piperidine-2-carbonyloxy)propyl)phenoxy)acetic acid] | 19.3 ± 6.6 | 11.6 ± 1.6 | – | – | –
COc1ccc(CC[C@@H](OC(=O)[C@@H]2CCCCN2C(=O)C(=O)c2ccc(Oc3ccccc3)cc2)c2cccc(OCC(=O)O)c2)cc1OC [Compound 10, 2-(3-((R)-3-(3,4-dimethoxyphenyl)-1-((S)-1-(2-oxo-2-(4-phenoxy-phenyl)acetyl)piperidine-2-carbonyloxy)propyl)phenoxy)acetic acid] | 2.83 ± 0.21 | 1.71 ± 0.35 | – | – | –
COc1ccc(CC[C@@H](OC(=O)[C@@H]2CCCCN2C(=O)C(=O)c2cc(Cl)cc(Cl)c2)c2cccc(OCC(=O)O)c2)cc1OC [Compound 11, 2-(3-((R)-3-(3,4-dimethoxyphenyl)-1-((S)-1-(2-oxo-2-(3,5-dichloro-phenyl)acetyl)piperidine-2-carbonyloxy)propyl)phenoxy)acetic acid] | 4.1 ± 0.8 | 5.6 ± 1.1 | – | – | –
COc1ccc(CCOC(=O)C2CCCCN2C(=O)C(=O)[C@]2(O)CCCC[C@H]2C)cc1OC (stereo partly drawn) [Reference Example 1*, 3,4-dimethoxyphenethyl 1-(2-((1S,2R)-1-hydroxy-2-methyl-cyclohexyl)-2-oxoacetyl)piperidine-2-carboxylate, reference compound] | > 100 | > 100 | – | – | –
COc1ccc(OCCOC(=O)C2CCCCN2C(=O)C(=O)[C@]2(O)CCCC[C@H]2C)cc1OC (stereo partly drawn) [Reference Example 2*, 2-(3,4-dimethoxyphenoxy)ethyl 1-(2-((1S,2R)-1-hydroxy-2-methyl-cyclohexyl)-2-oxoacetyl)piperidine-2-carboxylate, reference compound] | 29.4 ± 8.5 | 11.7 ± 6.4 | – | – | –
CC[C@@H]1CCCC[C@@]1(O)C(=O)C(=O)N1CCCCC1C(=O)OCCOc1ccc(OC)c(OC)c1 (stereo partly drawn) [Reference Example 3*, 2-(3,4-dimethoxyphenoxy)ethyl 1-(2-((1S,2R)-2-ethyl-1-hydroxy-cyclohexyl)-2-oxoacetyl) piperidine-2-carboxylate, reference compound] | > 100 | > 100 | – | – | –
CCC(C)(C)C(=O)C(=O)N1CCC[C@H]1C(=O)O[C@H](CCc1ccc(OC)c(OC)c1)c1cccc(OCC(=O)O)c1 [Reference Example 4, 2-(3-((R)-3-(3,4-dimethoxyphenyl)-1-((S)-1-(3,3-dimethyl-2-oxopentanoyl)-pyrrolidine-2-carbonyloxy)propyl)phenoxy)acetic acid, reference compound] | 51.5 ± 31.9 | 41.6 ± 15.8 | – | – | –
CCC(C)(C)C(=O)C(=O)N1CC=CC[C@H]1C(=O)O[C@H](CCc1ccc(OC)c(OC)c1)c1cccc(OCC(=O)O)c1 [Reference Example 5, 2-(3-((R)-3-(3,4-dimethoxyphenyl)-1-((S)-1-(3,3-dimethyl-2-oxopentanoyl)-1,2,3,6-tetrahydropyridine-2-carbonyloxy)propyl)phenoxy)acetic acid, reference compound] | 32.7 ± 12.3 | 49.2 ± 24.6 | – | – | –
COc1ccc(CC[C@@H](OC(=O)[C@@H]2CCCCN2C(=O)C(=O)C(C)(C)C)c2cccc(OCC(=O)O)c2)cc1OC [Reference Example 6, reference compound] | 38.4 ± 16.5 | 46.2 ± 18.8 | – | – | –
O=C(C(=O)N1CCCCC1C(=O)OCCCc1ccccc1)c1ccccc1 (stereo not drawn) [Reference Example 7, reference compound] | > 100 | > 100 | – | – | –
CCC(C)(C)C(=O)C(=O)N1CCCC1C(=O)OC(CCc1ccccc1)c1ccccc1 (stereo not drawn) [Reference Example 8, reference compound] | 89.5 ± 21.7 | > 100 | – | – | –
CC(C)C(C)(C)C(=O)C(=O)N1CCCC[C@H]1C(=O)O[C@H](CCc1ccccc1)c1ccccc1 [Reference Example 9, reference compound] | 55.6 ± 13.1 | 61.2 ± 23.7 | – | – | –
